The values below come from a melting point compilation (Tetko et al.).

The structures appear in SMILES notation.

For orientation: melting point means the temperature, or range, at which the solid turns liquid.

In turn, `Nc1ccc(C(F)(F)F)cc1N` registered a melting point of 56 to 58 °C.
For `O=C(O)c1cc(-c2ccccc2)n[nH]1` the value was 250 °C; for `COC(=O)c1ccccc1C(=O)c1ccccc1`, 52 °C.
The molecule `CC(CC(=O)O)C(=O)O` (configuration not stated) returned a melting point of 118 °C.
The value for `OCc1ccc(-c2ccccc2)cc1` was 101 to 105 °C; that for `ON=Cc1ccc(Cl)cc1` was 100 to 102 °C.
Regarding `O=C1c2ccccc2C(=O)C1c1cc(Cl)c([N+](=O)[O-])cc1[N+](=O)[O-]`, the melting point came to 185 °C.
`N#Cc1ccc(O)c(F)c1F` gave a melting point of 147 °C.
`O=C(O)C(O)(c1ccccc1)C1CCCCC1` (configuration not stated): the melting point lay in the range of 163 to 164 °C.
As for `O=C(Nc1cc(Cl)ccc1Cl)C(C(F)(F)F)C(F)(F)F`, the melting point was found to be 211 °C.
On to `Cc1cccnc1C(N)=NO`, for which the melting point lay within 94 to 95 °C.
`CCOC1OC(=O)c2c(OC)cccc21` (configuration not stated) displayed a melting point of 67 °C.
`CCCCNC(=O)OC#CCI` returned a melting point of 66 °C.
In turn, `CC(=O)C(c1ccccc1)c1ccccc1` returned a melting point of 61 °C.
For `Oc1cccc(N2CCNCC2)c1` the value was 207 °C; for `c1ccc2c(c1)ccc1nc3ccc4ccccc4c3cc12`, 216 °C; for `O=C(O)c1ccc(N=C=S)cc1`, 220 °C.
`N#CCCOc1ccc(Cl)cc1` showed a melting point of 45 to 47 °C.
For `Clc1cc2oc3cc(Cl)c(Cl)c(Cl)c3c2cc1Cl` the value was 225 °C; for `O=C(O)C(Cc1ccccc1)Cc1ccccc1`, 90 °C; for `CC(C)(C)C(C)(C)Cl`, 136 °C.
The value for `Nc1ccc(C#Cc2ccc(N)cc2)cc1` was 235 to 236 °C.
The value for `O=C=Nc1ccc(OC2CCOCC2)nc1` was 68.5 to 70.5 °C; that for `CCCC1COC(Cn2cncn2)(c2ccc(Cl)cc2Cl)O1` (configuration not stated) was less than 25 °C; that for `Cc1cc(O)c2c(c1)C(=O)c1cc(O)cc(O)c1C2=O` was 257 °C.
Molecule `CC(=O)OC(C)OC(C)=O` showed a melting point of 18.9 °C.
For `OC(CCl)CCl` the value was -4 °C.
`Cc1ccc(O)c(C(O)c2ccccc2)c1` (configuration not stated) returned a melting point of 103 °C.
`O=C1NC(=O)C(=Cc2ccccc2)N1` registered a melting point of 222 °C.
For `C[C@]12CC[C@H]3[C@@H](CC=C4C[C@@H](O)CC[C@@]43C)[C@@H]1CC[C@@H]2O`, the melting point lay within 178 to 182 °C.
`N#Cc1c[nH]cc1-c1cccc(Cl)c1Cl` showed a melting point of 150 °C.
For `c1ccc(O[Si]23OCCN(CCO2)CCO3)cc1` the value was 218 °C; for `Cc1ccc(O)c([N+](=O)[O-])n1`, 107 °C; for `O=C1CCCN1c1ccc(Br)cc1`, 98 to 101 °C.
The molecule `CCc1ccc(O)c(C(C)=O)c1O` displayed a melting point of 130 to 131 °C.
Molecule `O=C(O)C(F)(F)C(F)(F)C(F)(F)C(F)(F)C(=O)O` came in with a melting point of 134 °C.
The value for `CCN(CC)c1ccc(C(c2ccc(N(CC)CC)cc2C)c2ccc(N(CC)CC)cc2C)c(C)c1` was 163 to 165 °C.
The molecule `COC(=O)c1sc(-c2ccc(C(C)(C)C)cc2)cc1N` came in with a melting point of 156 to 157 °C.
In turn, `COc1c(Cl)cc(Cl)c(OC)c1C(N)=O` gave a melting point of 148 to 149 °C.
The value for `O=C(O)CCCCCC1NC(=O)CS1` (configuration not stated) was 140 °C.
`COc1cc(O)c2c(=O)cc(-c3ccc(O)cc3)oc2c1` yielded a melting point of 289 °C.
`CCOC(=O)COC(=O)c1cc(Oc2ccc(C(F)(F)F)cc2Cl)ccc1[N+](=O)[O-]`: the melting point was determined as 65 °C.
For `N#CCC(=O)Nc1ccccc1`, the melting point was in the range of 198 to 202 °C.
As to `O=C(Nc1cccc(Cl)c1)Nc1nnc(-c2ccc(Cl)cc2)o1`, the melting point is 246 to 247 °C.
For `CC(=O)C(=CNc1ccc(C)cc1)Cc1ccccc1` the value was 103 °C; for `NC(=S)Nc1ccc(Cl)cc1`, 177 to 181 °C; for `CN(C)c1ccc(C(=O)C(=O)c2ccc(N(C)C)cc2)cc1`, 202 °C.
The value for `Cc1nc(C)c(C=O)s1` was 30 °C.
`O=[N+]([O-])c1cc([N+](=O)[O-])c(/C=C/c2ccccc2)cc1/C=C/c1ccccc1` showed a melting point of 193 °C.
`O=[N+]([O-])c1ccc(I)c([N+](=O)[O-])c1` yielded a melting point of 89 °C.
The value for `O=C(CCCN1CC=C(n2c(=O)[nH]c3ccccc32)CC1)c1ccc(F)cc1` was 146 °C.
In turn, `Cc1ccc(C(=O)C(F)(F)C(F)(F)F)cc1` had a melting point of 4 °C.
The molecule `O=[N+]([O-])c1c(O)ccc2ccccc12` came in with a melting point of 104 °C.
For the molecule `C[Si]1(C)N[Si](C)(C)N[Si](C)(C)N1`, the melting point was -10 °C.
For `CCCCOC(=O)CC(C)=O` the value was -35.6 °C.
For `N[C@@H](CCl)C(=O)O` the value was 156 to 157 °C.
On to `O=C(O)C(Br)C(Br)C(=O)O` (configuration not stated), for which the melting point was 275 °C.
`Cc1csc2nc3ccccc3n12` returned a melting point of 161 to 163 °C.
For `Cc1cccnc1NC(=O)C(F)(F)C(F)(F)C(F)(F)C(F)(F)C(F)(F)C(F)(F)C(F)(F)C(F)(F)F` the value was 161 °C.
`CC(O)C(C)C(C)(C)C` (configuration not stated) yielded a melting point of 27 °C.
Consider `Cn1nc(-c2cccs2)cc1C(=O)Cl`, for which the melting point lay in the range of 113 to 114 °C.
As to `Cc1nc(O)nc(O)c1C`, the melting point lay in the range of 297 to 300 °C.
`CC(CC(=O)c1ccccc1)c1ccccc1` (configuration not stated) came in with a melting point of 70 °C.
For `Cn1c(=O)n(-c2cccc(Cl)c2)c(=O)c2c3c(sc21)CCCC3` the value was 240 to 241 °C; for `O=[N+]([O-])c1ccc(N=Nc2ccc([N+](=O)[O-])cc2)cc1`, 212 °C.
For the molecule `CCOC(=O)C=Cc1ccccc1N`, the melting point fell in the range of 76 to 77 °C.
Turning to `CN(C(=O)CN(CCO)CC(=O)N(C)C(C)(C)Cc1ccccc1)C(C)(C)Cc1ccccc1`, the melting point stood at 104 °C.
For `O=C(O)c1ccc(-c2ccccc2)s1`, the melting point was in the range of 188 to 192 °C.
In the case of `O=[N+]([O-])c1ccc(-c2nnc3n2NC(c2ccc(Cl)cc2)S3)cc1` (configuration not stated), the melting point was 220 °C.
Molecule `O=C1OC(c2ccc([N+](=O)[O-])cc2)Cc2ccccc21` (configuration not stated) yielded a melting point of 184 °C.
`FC(F)(F)c1ccc(N=C=S)cc1` returned a melting point of 41 to 43 °C.
As to `Cc1c(C#N)[nH]c2ccccc12`, the melting point was in the range of 102 to 104 °C.
Take `CCCCCCc1ccc(C#Cc2ccc(CC)cc2)cc1`: the melting point was determined as 10 °C.
In the case of `O=C(O)c1cc(-c2cccs2)[nH]n1`, the melting point lay in the range of 229 to 232 °C.
`N=C1NC(=O)C(=NNc2cccc([N+](=O)[O-])c2)S1` came in with a melting point of 208 °C.
`CN(C)CCOc1ccccc1C(=O)O` had a melting point of 108 to 109 °C.
For `COc1cccc(P(c2cccc(OC)c2)c2cccc(OC)c2)c1` the value was 115 °C.
`BrCc1cc(Br)cc(Br)c1` returned a melting point of 94 °C.
`C#CC1(O)CCC2C3CCc4cc(OC)ccc4C3CCC21C` (configuration not stated) registered a melting point of 150 °C.
`COc1cc(N=C=S)c(OC)cc1Cl` registered a melting point of 84 to 86 °C.
With `CCOC(=O)c1c(-c2ccccc2)csc1NC(=O)C(Cl)Cl`, the melting point fell in the range of 92 to 93 °C.
With `C=Cc1ccccc1C(=O)O`, the melting point is 94 °C.
Turning to `c1ccc(CC(=NNc2ccccc2)/C(Cc2ccccc2)=N\Nc2ccccc2)cc1`, the melting point is 181 °C.
`CC(C)(C)OC(=O)N1CCN(Cc2cccc(N)c2)CC1` returned a melting point of 107 to 108 °C.
The molecule `OCCC12CC3CC(CC(C3)C1)C2` returned a melting point of 74 °C.
As to `N#C/C(=C/c1cccs1)c1nc(-c2ccc(Cl)cc2)cs1`, the melting point turned out to be 170 °C.
`NNC(=O)C12CC3CC(CC(C3)C1)C2` yielded a melting point of 151 to 153 °C.
Molecule `COc1nn(CSP(=S)(OC)OC)c(=O)s1` displayed a melting point of 39.5 °C.
As for `CNC1CCC(c2ccc(Cl)c(Cl)c2)c2ccccc21` (configuration not stated), the melting point was 244 °C.
In turn, `Cc1ccc2c(ccc3ccccc32)n1` showed a melting point of 76 °C.
`CCC1(CC)C(=O)NC(=O)NC1=O` displayed a melting point of 190 °C.
`NC(Cc1cc(F)ccc1F)C(=O)O` (racemic) showed a melting point of 252 to 253 °C.
For `CCOC(=O)N1c2ccccc2C=CC1OCC` (configuration not stated), the melting point came out at 64.5 °C.
For `COc1cccc2cc(C(=O)O)oc12`, the melting point worked out at 219 °C.
The molecule `CC(C)(Oc1ccc(Cl)cc1)C(=O)OCc1cccnc1` displayed a melting point of 48.5 °C.
The value for `COc1cc(I)cc(C=O)c1O` was 129 °C.
With `Cc1cc(CO)n(C)n1`, the melting point lay within 52 to 54 °C.
`CC12CCCCC1CCC1C2CCC2(C)C(OCc3ccccc3)CCC12` (configuration not stated) registered a melting point of 160 °C.
Molecule `CCCCCc1ccc(OC(=O)c2ccc(OC(=O)c3ccc(CCCCC)cc3)cc2Cl)cc1` yielded a melting point of 39 to 122 °C.
`CCCCCCCCCCCCCCCCN`: the melting point is 46.8 °C.
Molecule `NNc1ccc(Cl)cc1[N+](=O)[O-]` yielded a melting point of 134 °C.
Turning to `c1ccc(-c2ccncn2)cc1`, the melting point was 56 °C.
On to `c1ccc(/N=N/c2ccc(-c3ccc(NNc4ccccc4)cc3)cc2)cc1`, for which the melting point was in the range of 172 to 173 °C.
Consider `C=CCc1ccccc1`, for which the melting point is -40 °C.
In the case of `Cc1cc(Br)cnc1Cl`, the melting point was 40 to 44 °C.
Turning to `Nc1ccc(F)cc1O`, the melting point is 138 °C.
The value for `Nc1cc2c(cc1Cl)C(=O)c1ccccc1C2=O` was 282 °C.
`BrCc1ccccc1I`: the melting point was 56 °C.
The value for `Cc1cc(C)c(C#N)c(C)c1` was 53 °C; that for `Cc1c(Br)cc(N)c(N)c1C` was 70 to 74 °C; that for `Cc1cc(C)c2ccccc2c1C` was 55.5 °C.
Consider `CC(C)(C)NCC(O)COc1ccccc1C1CCCC1` (configuration not stated), for which the melting point came out at 68 °C.
